According to BindingDB's records for doi:10.7270/Q2H70D5W (University of Pittsburgh, 2007):

Each molecule was assayed against Gag-Pol polyprotein (Human immunodeficiency virus type 1 group M subtype B (isolate HXB2), UniProt P04585) (assay: HIV-1 RT RNase H inhibitor potency, dose response, biochemical, probe assessment (AID 652)). Conditions: pH 8; 23 °C.
Molecule O=C(O)c1cc(S(=O)(=O)Nc2ccc3oc(=O)sc3c2)ccc1O [2-hydroxy-5-[(2-keto-1,3-benzoxathiol-5-yl)sulfamoyl]benzoic acid] has an IC50 of 7.39 µM.
With COC(=O)c1oc2ccc(Br)cc2c1NC(=O)c1ccccc1 [3-benzamido-5-bromo-2-benzofurancarboxylic acid methyl ester] the IC50 was 0.989 µM.
Molecule CC1CCc2c(sc(NC(=O)c3ccc(Cn4cc(Br)cn4)o3)c2C(N)=O)C1 (stereo not drawn) [2-({5-[(4-bromo-1H-pyrazol-1-yl)methyl]-2-furoyl}amino)-6-methyl-4,5,6,7-tetrahydro-1-benzothiophene-3-carboxamide] has an IC50 of 3.19 µM.
With CCOC(=O)N(c1ccccc1)P1(=S)OCCO1 [MLS000090301] the IC50 was 3.25 µM.
With Cc1ccc(/C=C/C2=Cc3c(sc(NC(=O)CSc4nnc(N)[nH]4)c3C#N)C(C)(C)C2)o1 [2-[(5-azanyl-1H-1,2,4-triazol-3-yl)sulfanyl]-N-[3-cyano-7,7-dimethyl-5-[(E)-2-(5-methylfuran-2-yl)ethenyl]-6H-1-benzothiophen-2-yl]ethanamide] the IC50 was 0.9 µM.
CC(Cc1ccc(O)c(O)c1)C(C)Cc1ccc(O)c(O)c1 (stereo not drawn) [LOX inhibitor, N/A] showed an IC50 of 0.664 µM.
For COC(=O)c1ccc2c(=O)n(Cc3ccco3)c(SCC(=O)Nc3ccc(C)c(Cl)c3)nc2c1 [2-[[2-(3-chloro-4-methyl-anilino)-2-keto-ethyl]thio]-3-(2-furfuryl)-4-keto-quinazoline-7-carboxylic acid methyl ester], the IC50 was 2.79 µM.
In the case of COc1ccc(C2C(C(C)=O)=C(C)N=c3sc(=Cc4ccc5c(c4)OCO5)c(=O)n32)cc1 (stereo not drawn) [SMR000020852], the IC50 is reported as 7.02 µM.
Molecule N#Cc1c(SCC(=O)Nc2nccs2)nc2c(c1-c1ccco1)CCCC2 [2-[[3-cyano-4-(2-furanyl)-5,6,7,8-tetrahydroquinolin-2-yl]thio]-N-(2-thiazolyl)acetamide] has an IC50 of 4.3 µM.
In the case of COc1cc(C2CC(=O)N3CN(c4ccccc4C)CSC3=C2C#N)cc(OC)c1OC (stereo not drawn) [3-(2-methylphenyl)-6-oxidanylidene-8-(3,4,5-trimethoxyphenyl)-2,4,7,8-tetrahydropyrido[2,1-b][1,3,5]thiadiazine-9-carbonitrile], the IC50 is reported as 4.1 µM.
In the case of COC(=O)c1cccc(N2C(=O)C(Cl)=C(N3CCOCC3)C2=O)c1 [SMR000014938], the IC50 is reported as greater than 50 µM.
Work on COc1ccc(OC)c(C=Nc2oc(-c3ccco3)c(-c3ccco3)c2C#N)c1 [MLS000068778] yielded an IC50 of 4.02 µM.
O=C1c2sc3nc4ccccc4n3c2C(=O)N1c1ccccc1Cl [MLS000038506] gave an IC50 of 1.13 µM.
With Cc1ccc2c(SCC(=O)NCc3ccco3)nc(-c3ccc(F)cc3)nc2c1 [2-[2-(4-Fluoro-phenyl)-7-methyl-quinazolin-4-ylsulfanyl]-N-furan-2-ylmethyl-acetamide] the IC50 was 3.34 µM.
For N#CC1C(=N)SC(=N)C(C#N)C1c1ccnc2ccccc12 (stereo not drawn) [2,6-bis(azanyl)-4-quinolin-4-yl-4H-thiopyran-3,5-dicarbonitrile], the IC50 was 13.7 µM.
COC(=O)c1sc(N2C(=O)c3oc4ccccc4c(=O)c3C2c2cccs2)nc1C (stereo not drawn) [2-(3,9-dioxo-1-thiophen-2-yl-1H-[1]benzopyrano[2,3-c]pyrrol-2-yl)-4-methyl-5-thiazolecarboxylic acid methyl ester] showed an IC50 of 5.25 µM.
In the case of Cc1ccc(-c2cc(C(F)F)n3ncc(C(=O)NCc4ccco4)c3n2)cc1 [7-(difluoromethyl)-N-(2-furanylmethyl)-5-(4-methylphenyl)-3-pyrazolo[1,5-a]pyrimidinecarboxamide], the IC50 is reported as 15.3 µM.
Cc1nn2c(-c3cccc(NC(=O)CSc4nc5ccccc5o4)c3)nnc2c2ccccc12 [2-(1,3-benzoxazol-2-ylsulfanyl)-N-[3-(6-methyl-[1,2,4]triazolo[3,4-a]phthalazin-3-yl)phenyl]acetamide] showed an IC50 of 3.71 µM.
c1ccc2[nH]c(SN3CCOCC3)nc2c1 was tested, and the IC50 was 12.5 µM.
Work on COc1ccc(N2CSC3=C(C#N)C(c4cc(OC)ccc4OC)CC(=O)N3C2)c(OC)c1 (stereo not drawn) [3-(2,4-dimethoxyphenyl)-8-(2,5-dimethoxyphenyl)-6-keto-2,4,7,8-tetrahydropyrido[2,1-b][1,3,5]thiadiazine-9-carbonitrile] yielded an IC50 of 2.9 µM.
Cc1ccccc1NC(=O)CSc1nc2c(c(-c3ccco3)c1C#N)CCCC2 [2-[[3-cyano-4-(2-furanyl)-5,6,7,8-tetrahydroquinolin-2-yl]thio]-N-(2-methylphenyl)acetamide] gave an IC50 of 5.23 µM.
Molecule CCC(C)Sc1nc2c(c(=O)[nH]c(=O)n2C)n1CC(O)COc1cccc2ccccc12 (stereo not drawn) [SMR000009990] has an IC50 of 4 µM.
CCOC(=O)c1c(N)sn(-c2ccccc2C)c1=S [5-amino-2-(2-methylphenyl)-3-sulfanylidene-4-isothiazolecarboxylic acid ethyl ester] gave an IC50 of 2.28 µM.
Cc1cc(C)c2c(=O)n(CC(=O)NCCCN3CCOCC3)sc2n1 [2-(3-keto-4,6-dimethyl-isothiazolo[5,4-b]pyridin-2-yl)-N-(3-morpholinopropyl)acetamide] showed an IC50 of 9.4 µM.
CN(C)c1cccc(C(=O)Nc2cccc(F)c2)c1 [3-(dimethylamino)-N-(3-fluorophenyl)benzamide] showed an IC50 of 12.2 µM.
CCOC(=O)c1sc(=S)n2c1[nH]c(=O)c1ccc(C(=O)OC)cc12 [MLS000094734] was tested, and the IC50 was 0.648 µM.
With Cc1cc(C)c2c(=O)n(CC(=O)N3CCC(N4CCCCC4)CC3)sc2n1 [2-[2-keto-2-(4-piperidinopiperidino)ethyl]-4,6-dimethyl-isothiazolo[5,4-b]pyridin-3-one] the IC50 was 38.4 µM.
Cc1ccc(-n2sc3ccccc3c2=O)cc1S(=O)(=O)N1CCCCC1 [2-(4-methyl-3-piperidin-1-ylsulfonyl-phenyl)-1,2-benzothiazol-3-one] gave an IC50 of 0.164 µM.
In the case of COc1cc(C(=O)Nc2oc(-c3ccccc3)c(-c3ccccc3)c2C#N)cc(OC)c1OC [MLS000051579], the IC50 is reported as 6.05 µM.
N#Cc1nc(-c2ccc(OCc3ccc(Cl)cc3)cc2)oc1NCc1cccnc1 [2-[4-(4-chlorobenzyl)oxyphenyl]-5-(3-pyridylmethylamino)oxazole-4-carbonitrile] was tested, and the IC50 was 12.9 µM.
Molecule CSc1ccc(C2c3ccc(=O)c4c(C)oc(C)c4c3OC(=N)C2C#N)cc1 (stereo not drawn) [2-amino-7-keto-8,10-dimethyl-4-[4-(methylthio)phenyl]-4H-furo[1,2]cyclohepta[4,6-d]pyran-3-carbonitrile] has an IC50 of 5.81 µM.
O=C(NC(=O)c1ccc(Cl)cc1)Nc1cc(N2CCCCC2)ncn1 [4-chloranyl-N-[(6-piperidin-1-ylpyrimidin-4-yl)carbamoyl]benzamide] was tested, and the IC50 was 8.45 µM.
Molecule O=C(CSc1nnc[nH]1)c1ccccc1 has an IC50 of 5.52 µM.
Work on COc1ccc(Cn2nnnc2C(c2cccnc2)N2CCN(c3ccc(O)cc3)CC2)cc1 (stereo not drawn) [4-(4-{[1-(4-Methoxy-benzyl)-1H-tetrazol-5-yl]-pyridin-3-yl-methyl}-piperazin-1-yl)-phenol] yielded an IC50 greater than 50 µM.
C=CCn1c(SCC(=O)NC(=O)NCc2ccco2)nc2sc(C)c(C)c2c1=O [2-(5,6-dimethyl-4-oxidanylidene-3-prop-2-enyl-thieno[2,3-d]pyrimidin-2-yl)sulfanyl-N-(furan-2-ylmethylcarbamoyl)ethanamide] was tested, and the IC50 was 19 µM.
Molecule c1ccc(-n2ncc3c2ncn2nc(-c4ccco4)nc32)cc1 [MLS000041701] has an IC50 of 8.01 µM.
Molecule CC(C)Cn1c(SCC(=O)NC(=O)Nc2ccc3c(c2)OCCO3)nc2ccccc2c1=O [MLS000057544] has an IC50 of 4.47 µM.
CCn1c2ccccc2c2nc3cc(S(=O)(=O)N4CCOCC4)ccc3nc21 [4-(6-ethylindolo[2,3-b]quinoxalin-2-yl)sulfonylmorpholine] showed an IC50 of 1.02 µM.
COC(=O)N(c1ccc(OC)cc1)P1(=S)OCCC(C)O1 (stereo not drawn) [MLS000043492] gave an IC50 of 1.02 µM.
CCOC(=O)C1CCCN(C(=O)Cn2sc3nc(C)cc(C)c3c2=O)C1 (stereo not drawn) [1-[2-(3-keto-4,6-dimethyl-isothiazolo[5,4-b]pyridin-2-yl)acetyl]nipecotic acid ethyl ester] was tested, and the IC50 was 9.03 µM.
In the case of COC(=O)c1ccccc1NC(=O)c1ccc2c(c1)C(=O)N(Cc1ccco1)C2=O [2-[[2-(2-furfuryl)-1,3-diketo-isoindoline-5-carbonyl]amino]benzoic acid methyl ester], the IC50 is reported as 7.36 µM.
Cc1cc(C)c(C#N)c(=N)o1 [2-azanylidene-4,6-dimethyl-pyran-3-carbonitrile] gave an IC50 of 0.298 µM.
With CCCSc1nc2c(cnn2-c2ccc(Cl)cc2)c(=O)[nH]1 [MLS000091828] the IC50 was 9.64 µM.
OCCN1CCN(C(=S)c2ccc(Cl)c(Cl)c2)CC1 [(3,4-dichlorophenyl)-[4-(2-hydroxyethyl)-1-piperazinyl]methanethione] was tested, and the IC50 was 3.2 µM.
With c1cncc(-c2nn3c(Cn4cnc5ccccc54)nnc3s2)c1 [1-{[6-(3-pyridinyl)[1,2,4]triazolo[3,4-b][1,3,4]thiadiazol-3-yl]methyl}-1H-benzimidazole] the IC50 was 0.621 µM.
Work on Cc1cccc(N2CCN(C(=O)Cn3sc4nc(C)cc(C)c4c3=O)CC2C)c1 (stereo not drawn) [2-[2-keto-2-[3-methyl-4-(m-tolyl)piperazino]ethyl]-4,6-dimethyl-isothiazolo[5,4-b]pyridin-3-one] yielded an IC50 of 4.28 µM.
For Nc1c(C(=O)N2CCCCC2)sc(=S)n1-c1ccccc1 [(4-amino-3-phenyl-2-sulfanylidene-1,3-thiazol-5-yl)-piperidin-1-ylmethanone], the IC50 was 1.85 µM.
c1ccc(Cc2nn3c(COc4ccccc4)nnc3s2)cc1 [3-(phenoxymethyl)-6-(phenylmethyl)-[1,2,4]triazolo[3,4-b][1,3,4]thiadiazole] was tested, and the IC50 was 1.36 µM.
COC(=O)c1ccc2c(c1)N(Cc1nc(-c3ccc(Cl)cc3)oc1C)C(=O)C1CCCN21 (stereo not drawn) [5-[[2-(4-chlorophenyl)-5-methyl-4-oxazolyl]methyl]-4-oxo-1,2,3,3a-tetrahydropyrrolo[1,2-a]quinoxaline-7-carboxylic acid methyl ester] gave an IC50 of 2.86 µM.
With CCC1(C)Cc2c(sc3c2c(=O)n(C)c2nnc(SCc4ccc5c(c4)OCO5)n32)CO1 (stereo not drawn) [MLS000030507] the IC50 was 23 µM.
Cc1cccc(N2CSC3=C(C#N)C(c4ccc(C)o4)CC(=O)N3C2)c1 (stereo not drawn) [MLS000080648] showed an IC50 of 0.434 µM.
CN1CSC2=C(C#N)C(c3cccc(OCc4ccccc4)c3)CC(=O)N2C1 (stereo not drawn) showed an IC50 of 10.6 µM.
In the case of Cc1cc(C(=O)CSc2nnc(-c3ccc(OC(F)F)cc3)o2)c(C)n1Cc1cccs1 [2-[[5-[4-(difluoromethoxy)phenyl]-1,3,4-oxadiazol-2-yl]sulfanyl]-1-[2,5-dimethyl-1-(thiophen-2-ylmethyl)pyrrol-3-yl]ethanone], the IC50 is reported as 1.88 µM.
